Results from patent publication US8829202B2, “Condensed polycyclic aromatic compound, aromatic polymer, and method for synthesizing aromatic compound” (Teijin Limited, priority 2011, dated 2014).
“And” between values parts separate entries of the source, which are not always exact repeats. Identical values can stand only once.

Assay: Solubility of the obtained compound in chloroform
Type: physicochemical
Conditions: solvent chloroform

| Molecule | solubility in chloroform |
| --- | --- |
| CC[Si](C#Cc1c2ccccc2cc2sc3c(sc4cc5ccccc5c(C#C[Si](CC)(CC)CC)c43)c12)(CC)CC [Di-triethylsilylacetylene-substituted DNTT] | 0.10 wt % and 0.13 wt % |
| C[Si](C)(C)C#Cc1c2ccccc2cc2sc3c(sc4cc5ccccc5c(C#C[Si](C)(C)C)c43)c12 [Di-trimethylsilylacetylene-substituted DNTT] | 0.05 wt % |
| CCCCCCCCCCc1c2ccccc2cc2sc3c(sc4cc5ccccc5c(CCCCCCCCCC)c43)c12 [di-decane-substituted DNTT] | 0.05 wt % |
| Di-triisopropylsilylacetylene-substituted dinaphthothienothiophene [di-TIPS-substituted DNTT] | 0.2 wt % |

More lines, now with the values ahead:

| solubility in chloroform | Molecule |
| --- | --- |
| 2.3 wt % | CCCCCCCCC#Cc1c2ccccc2cc2sc3c(sc4cc5ccccc5c(C#CCCCCCCCC)c43)c12 [di-1-dysine-substituted DNTT, Di-1-dysine-substituted dinaphthothienothiophene] |
| 6.5 wt % | CCCCCCCCCCCCC#Cc1c2ccccc2cc2sc3c(sc4cc5ccccc5c(C#CCCCCCCCCCCCC)c43)c12 [di-1-tetradysine-substituted DNTT, di-1-tetradecyne-substituted DNTT] |
| 0.51 wt % | Di-triisopropylsilylethane-substituted DNTT |

Same assay, conditions: solvent chloroform; DNTT used as raw material

| solubility in chloroform (in words) | Molecule |
| --- | --- |
| substantially not dissolved | c1ccc2cc3c(cc2c1)sc1c2cc4ccccc4cc2sc31 [DNTT, Dinaphthothienothiophene, reference compound] |

Same assay, conditions: solvent chloroform; listed as di-1-tetradesyne-substituted DNTT

| solubility in chloroform [wt %] | Molecule |
| --- | --- |
| 1.67 | CCCCCCCCCCCCC#Cc1c2ccccc2cc2sc3c(sc4cc5ccccc5c(C#CCCCCCCCCCCCC)c43)c12 [di-1-tetradysine-substituted DNTT, di-1-tetradecyne-substituted DNTT] |
